Data taken from PubChem BioAssay AID1845195 (Molecular Pharmacology Branch, DTP, NCI, 2023).

Test system: 156681-154-R-J1 tumor spheroid viability
Test: Anticancer human tumor 156681-154-R-J1 patient-derived melanoma cell line growth inhibition
Details: spheroids with HUVEC and MSC; for IC50: curve of first compound; for viability, T/C: stronger effect = lower value
Procedure, shortened: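 Complex tumor spheroids combined malignant cells with endothelial cells and mesenchymal stem cells. DNA-damaging drugs and DNA repair inhibitors were tested alone and in combination, at half-log dilutions down from clinical Cmax (top 10 microM if Cmax unknown), 0.25% DMSO final.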

[1] = second compound 30 pM, first compound 0.00949 µM
[2] = second compound 30 pM, first compound 0.03 µM
[3] = second compound 30 pM, first compound 0.0949 µM
[4] = second compound 30 pM, first compound 0.3 µM
[5] = second compound 30 pM, first compound 0.949 µM
[6] = second compound 30 pM, first compound 3 µM
[7] = second compound 94.9 pM, first compound 0.00949 µM
[8] = second compound 94.9 pM, first compound 0.03 µM
[9] = second compound 94.9 pM, first compound 0.0949 µM
[10] = second compound 94.9 pM, first compound 0.3 µM
[11] = second compound 94.9 pM, first compound 0.949 µM
[12] = second compound 94.9 pM, first compound 3 µM
[13] = second compound 0.0003 µM, first compound 0.00949 µM
[14] = second compound 0.0003 µM, first compound 0.03 µM
[15] = second compound 0.0003 µM, first compound 0.0949 µM
[16] = second compound 0.0003 µM, first compound 0.3 µM
[17] = second compound 0.0003 µM, first compound 0.949 µM
[18] = second compound 0.0003 µM, first compound 3 µM
[19] = second compound 0.000949 µM, first compound 0.00949 µM
[20] = second compound 0.000949 µM, first compound 0.03 µM
[21] = second compound 0.000949 µM, first compound 0.0949 µM
[22] = second compound 0.000949 µM, first compound 0.3 µM
[23] = second compound 0.000949 µM, first compound 0.949 µM
[24] = second compound 0.000949 µM, first compound 3 µM
[25] = second compound 0.003 µM, first compound 0.00949 µM
[26] = second compound 0.003 µM, first compound 0.03 µM
[27] = second compound 0.003 µM, first compound 0.0949 µM
[28] = second compound 0.003 µM, first compound 0.3 µM
[29] = second compound 0.003 µM, first compound 0.949 µM
[30] = second compound 0.003 µM, first compound 3 µM
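Note: spheroids exposed to compounds for 7 days before readout.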
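Throughout, for viability, T/C: percent of vehicle control viability where 100% = DMSO-treated spheroids.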

| SMILES | IC50 (second compound 30 pM) [nM] | IC50 (second compound 94.9 pM) [nM] | IC50 (second compound 0.0003 µM) [nM] | IC50 (second compound 0.000949 µM) [nM] | IC50 (second compound 0.003 µM) [nM] | viability, T/C [3] [%] | viability, T/C [4] [%] | viability, T/C [5] [%] | viability, T/C [6] [%] | viability, T/C [9] [%] | viability, T/C [10] [%] | viability, T/C [11] [%] | viability, T/C [12] [%] | viability, T/C [15] [%] | viability, T/C [16] [%] | viability, T/C [17] [%] | viability, T/C [18] [%] | viability, T/C [21] [%] | viability, T/C [22] [%] | viability, T/C [23] [%] | also measured |
| --- | --- | --- | --- | --- | --- | --- | --- | --- | --- | --- | --- | --- | --- | --- | --- | --- | --- | --- | --- | --- | --- |
| CNCc1ccc(-c2cc(-c3nc(-c4ccc(S(=O)(=O)C(C)C)cc4)cnc3N)on2)cc1 + COc1cc2c(cc1O)CCNC21CSC2c3c(OC(C)=O)c(C)c4c(c3C(COC1=O)N1C(O)C3Cc5cc(C)c(OC)c(O)c5C(C21)N3C)OCO4 | 1120 | 870 | 581 | < 9.49 | < 9.49 | 99 | 85.2 | 53.5 | 17 | 101 | 77.1 | 49.3 | 2.05 | 90.4 | 69.1 | 35.4 | 1.71 | 4.37 | 3.55 | 1.04 | viability, T/C [1]: 119%; viability, T/C [2]: 103%; viability, T/C [7]: 112%; viability, T/C [8]: 113%; viability, T/C [13]: 90.6%; viability, T/C [14]: 100%; viability, T/C [19]: 3.5%; viability, T/C [20]: 5.91%; viability, T/C [24]: 0.15%; viability, T/C [25]: 0.16%; viability, T/C [26]: 0.17%; viability, T/C [27]: 0.17%; viability, T/C [28]: 0.12%; viability, T/C [29]: 0.12%; viability, T/C [30]: 0.24% |
| Cc1sc2c(c1C)C(c1ccc(Cl)cc1)=NC(CC(=O)Nc1ccc(O)cc1)c1nnc(C)n1-2 (stereo not given) + COc1cc2c(cc1O)CCNC21CSC2c3c(OC(C)=O)c(C)c4c(c3C(COC1=O)N1C(O)C3Cc5cc(C)c(OC)c(O)c5C(C21)N3C)OCO4 | > 3000 | 2030 | 197 | < 9.49 | < 9.49 | 103 | 109 | 68.3 | 61.8 | 95.8 | 85.5 | 82.5 | 34.7 | 64.9 | 45.2 | 15.7 | 9.14 | 2.97 | 1.78 | 0.17 | viability, T/C [1]: 104%; viability, T/C [2]: 92.1%; viability, T/C [7]: 108%; viability, T/C [8]: 97.1%; viability, T/C [13]: 90.7%; viability, T/C [14]: 76.7%; viability, T/C [19]: 1.73%; viability, T/C [20]: 3.32%; viability, T/C [24]: 0.15%; viability, T/C [25]: 0.14%; viability, T/C [26]: 0.17%; viability, T/C [27]: 0.12%; viability, T/C [28]: 0.12%; viability, T/C [29]: 0.12%; viability, T/C [30]: 0.21% |
| Cn1ncnc1[C@H]1c2n[nH]c(=O)c3cc(F)cc(c23)N[C@@H]1c1ccc(F)cc1 + COc1cc2c(cc1O)CCNC21CSC2c3c(OC(C)=O)c(C)c4c(c3C(COC1=O)N1C(O)C3Cc5cc(C)c(OC)c(O)c5C(C21)N3C)OCO4 | 1440 | 688 | 97 | < 9.49 | < 9.49 | 97.9 | 72.4 | 70.9 | 19.1 | 91.9 | 73.3 | 40.8 | 14 | 51 | 36.6 | 15.2 | 11.3 | 4.05 | 2.68 | 1 | viability, T/C [1]: 82%; viability, T/C [2]: 91.7%; viability, T/C [7]: 97.5%; viability, T/C [8]: 80.7%; viability, T/C [13]: 48.5%; viability, T/C [14]: 53.7%; viability, T/C [19]: 10%; viability, T/C [20]: 4.38%; viability, T/C [24]: 0.14%; viability, T/C [25]: 0.15%; viability, T/C [26]: 0.14%; viability, T/C [27]: 0.55%; viability, T/C [28]: 0.12%; viability, T/C [29]: 0.13%; viability, T/C [30]: 0.18% |
| O=C(c1cc(Cc2n[nH]c(=O)c3ccccc23)ccc1F)N1CCN(C(=O)C2CC2)CC1 + COc1cc2c(cc1O)CCNC21CSC2c3c(OC(C)=O)c(C)c4c(c3C(COC1=O)N1C(O)C3Cc5cc(C)c(OC)c(O)c5C(C21)N3C)OCO4 | > 30000 | > 30000 | 5840 | < 94.9 | < 94.9 | 83.5 | 77 | 73.4 | 72.2 | 82.1 | 85.9 | 82.7 | 66.3 | 69.8 | 68.6 | 64.1 | 66.8 | 4.61 | 4.05 | 3.32 | viability, T/C (second compound 30 pM, first compound 9.49 µM): 65.3%; viability, T/C (second compound 30 pM, first compound 30 µM): 60.1%; viability, T/C (second compound 94.9 pM, first compound 9.49 µM): 69%; viability, T/C (second compound 94.9 pM, first compound 30 µM): 53.5%; viability, T/C (second compound 0.0003 µM, first compound 9.49 µM): 37.8%; viability, T/C (second compound 0.0003 µM, first compound 30 µM): 21.2%; viability, T/C [24]: 4.15%; viability, T/C (second compound 0.000949 µM, first compound 9.49 µM): 0.45%; viability, T/C (second compound 0.000949 µM, first compound 30 µM): 0.13%; viability, T/C [27]: 0.12%; viability, T/C [28]: 0.12%; viability, T/C [29]: 0.1%; viability, T/C [30]: 0.11%; viability, T/C (second compound 0.003 µM, first compound 9.49 µM): 0.11%; viability, T/C (second compound 0.003 µM, first compound 30 µM): 0.17% |
